Experimental data published in patent US10815247B2, “Functionalized NANOLUC inhibitors” (PROMEGA CORPORATION, priority 2016, dated 2020).
“Also recorded” adds a separate entry of the source.

Key:
[1] = tested on: NanoBiT (LgBiT and HaloTag-HiBiT); assay: Multiplexing luciferases with the same wavelength (FIG. 11); type: biochemical; conditions: 100 uM JRW-0552 solution; LgBiT 200 nM, HaloTag-HiBiT 0.2 nM added after 50 minutes
Description: (§1) Three conditions are represented in this figure: 1) NanoLuc with JRW-0552; 2) NanoLuc and HiBiT with JRW-0552; and 3) NanoLuc and LgBiT with JRW-0552. At the 50 minute mark, an addition is done in each condition: 1) furimazine; 2) furimazine; and 3) LgBiT, furimazine, and HiBiT, respectively.
(§2) The following solutions were prepared in TBS+20 uM furimazine: 1) 0.4 ng/ml NanoLuc, 2) 0.4 ng/ml NanoLuc+0.2 nM HaloTag-HiBiT, 3) 0.4 ng/ml NanoLuc+200 nM LgBiT. 50 ul of each solution was combined in triplicate with a solution containing 100 uM JRW-0552 diluted into NanoGlo® buffer.
(§3) After 50 minutes, 100 ul of the following solutions were added to the corresponding samples: 1) NanoGlo® buffer+50 uM furimazine, 2) NanoGlo® buffer+50 uM furimazine+200 nM LgBiT, 3) NanoGlo® buffer+50 uM furimazine+0.2 nM HaloTag-HiBiT.

NanoLuc [2] = biological target: T1, NanoLuc (Oplophorus gracilirostris, UniProt Q9GV45, A31E/A60N/A81I/F95D/I117V/K70R/L54V/L99Q/M102K/N193R/P142E/Q151K/Q38R/Q45L/V71I/Y165I); assay: as above; type: biochemical; conditions: 100 uM JRW-0552 solution in NanoGlo buffer, 0.4 ng/ml NanoLuc, kinetic read
T1 sequence (Q9GV45 28-196 with tags or gaps with the stated changes limits assumed): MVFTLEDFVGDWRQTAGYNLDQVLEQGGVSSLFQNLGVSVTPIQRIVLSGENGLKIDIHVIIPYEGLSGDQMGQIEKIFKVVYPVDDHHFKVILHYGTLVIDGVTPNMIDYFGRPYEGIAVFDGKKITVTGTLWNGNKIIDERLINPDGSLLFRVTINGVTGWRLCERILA
Description: as §1, §2, §3

NanoLuc [3] = biological target: T1, NanoLuc; assay: Suicide inhibition: displacement of inhibitor by furimazine upon dilution (FIG. 7); conditions: 10 μM Nluc + 10 μM inhibitor 30 minutes at RT, diluted to 10 pM, furimazine 10 uM
Description: Following dilution, 50 ul of the dilution was combined with 50 ul of NanoGlo® assay buffer.
Following dilution, 50 ul of the dilution was combined with 50 ul of NanoGlo® assay buffer. Final furimazine concentration was 10 uM.

Cetux-Fab-Nluc = assay: EGFR/Cetuximab binding assay with inhibitor and PBS wash (FIG. 9); type: biochemical; conditions: 1 μM inhibitor for 5 or 30 minutes, PBS wash 0, 10, 30, or 60 minutes, furimazine 10 μM
Description: Cetux-Fab-Nluc competes with Cetuximab for binding of EGFR. […] Following the first reading, 1 μM inhibitor is added for a period of 5 minutes or 30 minutes. The plates were subsequently washed with PBS for 0, 10, 30, or 60 minutes.

NanoLuc [4] = biological target: T1, NanoLuc; assay: Inhibitor IC50 determination; type: biochemical
Description: The following example provides the IC50 values for the compounds disclosed herein. NANOLUC® enzyme was diluted to 0.4 ng/ml in CO2 independent media+10% FBS to make the detection reagent. A 3× dilution series of each inhibitor was then made in the detection reagent. A “no inhibitor” control was also made for each sample. 50 ul of each inhibitor dilution was mixed with 50 ul of NanoGlo® buffer containing 20 μM furimazine (final furimazine concentration is 10 μM, which is at Km.), and luminescence was measured. Each sample was normalized to the “no inhibitor” control. The IC50 values were then determined using GraphPad Prism (log[inhibitor] vs. normalized response).

NanoLuc [5] = biological target: T1, NanoLuc; conditions: inhibitor diluted to 3 uM, NanoLuc 0.4 ng/ml, 100 uM furimazine, read at two minute intervals
Description: Inhibitors were diluted to 3 uM into OptiMEM+0.1% FBS. NanoLuc was diluted to 0.4 ng/ml into NanoGlo® buffer+100 uM furimazine. 50 ul of each inhibitor was added to 50 ul of the NanoLuc/furimazine/NanoGlo® solution. Samples were immediately placed in a GloMax Multi+ set to read in kinetic mode at two minute intervals.
Inhibitors were diluted to 3 uM into OptiMEM+0.1% FBS. NanoLuc was diluted to 0.4 ng/ml into NanoGlo® buffer+100 uM furimazine. 50 ul of each inhibitor was added to 50 ul of the NanoLuc/furimazine/NanoGlo® solution. Samples were immediately placed in a GloMax® Multi+ set to read in kinetic mode at two minute intervals.

[6] = biological target: Nluc-HT-TMR (Nluc-HT conjugated to TMR chloroalkane) (Oplophorus gracilirostris, UniProt Q9GV45, A31E/A60N/A81I/F95D/I117V/K70R/L54V/L99Q/M102K/N193R/P142E/Q151K/Q38R/Q45L/V71I/Y165I); assay: Inhibition of Nluc luciferase by JRW-0308 (FIG. 1); conditions: 0.05 nM protein in PBS/0.05% BSA, 2 hours at room temperature, furimazine 10 μM
Nluc-HT-TMR (Nluc-HT conjugated to TMR chloroalkane), sequence (Q9GV45 28-196 with tags or gaps with the stated changes limits assumed): as above
Description: (§4) Samples were analyzed after addition of furimazine (10 μM final concentration) using a BMG Clariostar plate reader.

Nluc in HeLa cells = Nluc in HeLa cells (Oplophorus gracilirostris, UniProt Q9GV45, A31E/A60N/A81I/F95D/I117V/K70R/L54V/L99Q/M102K/N193R/P142E/Q151K/Q38R/Q45L/V71I/Y165I); assay: Inhibition of Nluc luciferase in cells (FIG. 2A); conditions: 2 hours at 37° C., furimazine 190 μM
Nluc in HeLa cells, sequence (Q9GV45 28-196 with tags or gaps with the stated changes limits assumed): as above
Description: (§5) HeLa cells were reverse transfected with expression constructs for Nluc or Nluc-HT, plated (20,000 cells/100 μL growth medium) and incubated for 24 hours. […] HeLa cells were reverse transfected with expression constructs for Nluc or Nluc-HT, plated (20,000 cells/100 μL growth medium), and incubated for 24 hours.

[7] = tested on: Nluc-HT fusion protein in HeLa cells; assay: Inhibition of Nluc luciferase in cells (FIG. 2A, 2B); type: cell-based; conditions: 2 hours at 37° C., furimazine 190 μM
[8] = biological target: Nluc-HT-618 in HeLa cells (Oplophorus gracilirostris, UniProt Q9GV45, A31E/A60N/A81I/F95D/I117V/K70R/L54V/L99Q/M102K/N193R/P142E/Q151K/Q38R/Q45L/V71I/Y165I); assay: Inhibition of Nluc luciferase in cells (FIG. 2B); conditions: HeLa cells pre-labelled with 500 nM NanoBRET 618 ligand, 2 hours at 37° C., furimazine 190 μM
Nluc-HT-618 in HeLa cells, sequence (Q9GV45 28-196 with tags or gaps with the stated changes limits assumed): as above
Description: as §5

Nluc-HT fusion protein = assay: Inhibition of Nluc luciferase by JRW-0308 (FIG. 1); type: biochemical; conditions: 0.05 nM protein in PBS/0.05% BSA, 2 hours at room temperature, furimazine 10 μM
Nluc = Nluc (Oplophorus gracilirostris, UniProt Q9GV45, A31E/A60N/A81I/F95D/I117V/K70R/L54V/L99Q/M102K/N193R/P142E/Q151K/Q38R/Q45L/V71I/Y165I); assay: Inhibition of Nluc luciferase by JRW-0308 (FIG. 1); conditions: 0.05 nM protein in PBS/0.05% BSA, 2 hours at room temperature, furimazine 10 μM
Nluc, sequence (Q9GV45 28-196 with tags or gaps with the stated changes limits assumed): as above
Description: as §4

SMILES | activity of NanoBiT configurations in presence of inhibitor [1] | inhibition of NanoLuc signal (NanoLuc [2]) | displacement of inhibitor by furimazine upon dilution (NanoLuc [3]) | reversibility of Nluc inhibition (NanoLuc [3]) | reversibility of inhibition after PBS wash (Cetux-Fab-Nluc) | IC50 (NanoLuc [4]) [nM] | Nluc inhibition over time (kinetic light output) (NanoLuc [5]) | inhibition of Nluc-HT-TMR [6] | inhibition of Nluc in cells (Nluc in HeLa cells) | inhibition of Nluc-HT fusion protein in cells [7] | inhibition of Nluc-HT-618 in cells [8] | inhibition of Nluc-HT fusion protein (Nluc-HT fusion protein) | inhibition of Nluc alone (Nluc)
CCN(C(=O)Cn1c(C(=O)N[C@H]2CC[C@H](C(=O)NCCCCCCCC(=O)ON3C(=O)CCC3=O)CC2)cc2sccc21)c1cccc(C)c1 [JRW-0552] | remain operational | selectively inhibits | not displaced | irreversible inhibition; also recorded: irreversibly inhibit | irreversible | 2.9 | time dependent inhibition | – | – | – | – | – | –
CCN(C(=O)Cn1c(C(=O)N[C@H]2CC[C@H](C(=O)NCCCCCCNC(=O)OCCOCCOCCOC(=O)NCCOCCOCCCCCCCl)CC2)cc2sccc21)c1cccc(C)c1 [JRW-0308] | – | – | – | – | – | 22 | – | higher concentrations are required | higher concentrations are required | potently inhibits | higher concentrations of JRW-0308 are necessary | potently inhibits | higher concentrations are required
CCN(C(=O)Cn1c(C(=O)N[C@H]2CC[C@H](C(=O)NCCCCCCCC(=O)NCCOCCOCCC(=O)ON3C(=O)CCC3=O)CC2)cc2sccc21)c1cccc(C)c1 [JRW-0544, 2,5-dioxopyrrolidin-1-yl 1-(trans-4-(4-(2-(ethyl(m-tolyl)amino)-2-oxoethyl)-4H-thieno[3,2-b]pyrrole-5-carboxamido)cyclohexyl)-1,10-dioxo-14,17-dioxa-2,11-diazaicosan-20-oate] | – | – | – | – | – | 13 | steady state binding | – | – | – | – | – | –
